The values that follow come from PMC10882719 (Frontiers in Neuroscience, 2024).

Molecules are shown by their SMILES. Where two headings read alike, the source gives them in different places.

Holding throughout (type): cell-based
The target of assay [1] is T1, 168 GPCRs (Homo sapiens, UniProt O00574).
T1 construct: host or cells: PathHunter cell lines

The target in assay [2] is T2, 168 GPCRs (Homo sapiens, UniProt O43613).
T2 construct: host or cells: PathHunter cell lines
T2 sequence (O43613 1-425): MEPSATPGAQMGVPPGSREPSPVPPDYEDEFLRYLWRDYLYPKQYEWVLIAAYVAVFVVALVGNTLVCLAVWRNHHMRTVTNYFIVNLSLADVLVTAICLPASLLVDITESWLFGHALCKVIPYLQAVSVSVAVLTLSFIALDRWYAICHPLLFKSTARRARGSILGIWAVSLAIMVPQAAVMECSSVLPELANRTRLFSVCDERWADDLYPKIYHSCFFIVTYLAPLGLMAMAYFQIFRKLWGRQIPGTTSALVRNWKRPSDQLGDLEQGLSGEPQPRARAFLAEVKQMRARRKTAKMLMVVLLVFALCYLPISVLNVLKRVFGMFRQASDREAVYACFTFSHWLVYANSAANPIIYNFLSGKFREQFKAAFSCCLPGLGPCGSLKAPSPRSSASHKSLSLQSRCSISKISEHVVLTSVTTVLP

The target of assay [3] is T3, 168 GPCRs (Homo sapiens, UniProt P08913).
T3 construct: host or cells: PathHunter cell lines
T3 sequence (P08913 1-465): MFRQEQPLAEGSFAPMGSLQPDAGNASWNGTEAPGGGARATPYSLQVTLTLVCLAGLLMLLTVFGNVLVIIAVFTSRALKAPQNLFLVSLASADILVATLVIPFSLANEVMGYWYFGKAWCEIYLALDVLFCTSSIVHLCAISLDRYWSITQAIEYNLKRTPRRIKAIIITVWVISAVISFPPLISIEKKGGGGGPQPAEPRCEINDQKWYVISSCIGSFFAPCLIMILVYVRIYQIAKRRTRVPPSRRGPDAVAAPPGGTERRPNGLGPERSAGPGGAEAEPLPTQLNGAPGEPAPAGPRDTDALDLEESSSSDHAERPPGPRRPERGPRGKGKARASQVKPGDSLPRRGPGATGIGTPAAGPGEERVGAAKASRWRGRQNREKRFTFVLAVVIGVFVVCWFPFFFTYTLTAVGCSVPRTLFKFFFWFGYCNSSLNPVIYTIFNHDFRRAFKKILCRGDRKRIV
Conditions: ADRA2A.

In assay [4] the target is T4, 168 GPCRs (Homo sapiens, UniProt P11229).
T4 construct: host or cells: PathHunter cell lines
T4 sequence (P11229 1-460): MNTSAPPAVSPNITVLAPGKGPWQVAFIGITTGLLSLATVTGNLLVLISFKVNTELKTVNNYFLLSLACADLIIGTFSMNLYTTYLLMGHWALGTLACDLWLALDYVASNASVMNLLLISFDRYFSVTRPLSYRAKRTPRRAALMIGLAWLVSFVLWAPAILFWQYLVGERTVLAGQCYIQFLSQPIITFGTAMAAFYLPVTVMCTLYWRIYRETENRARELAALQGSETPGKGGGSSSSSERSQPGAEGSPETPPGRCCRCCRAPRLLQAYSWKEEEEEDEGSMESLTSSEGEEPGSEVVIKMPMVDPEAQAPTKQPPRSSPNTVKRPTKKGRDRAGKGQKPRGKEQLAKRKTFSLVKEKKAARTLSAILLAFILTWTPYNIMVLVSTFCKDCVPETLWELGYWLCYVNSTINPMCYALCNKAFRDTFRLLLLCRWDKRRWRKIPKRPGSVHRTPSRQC

Assay [5] deals with T5, 168 GPCRs (Homo sapiens, UniProt P25024).
T5 construct: host or cells: PathHunter cell lines
T5 sequence (P25024 1-350): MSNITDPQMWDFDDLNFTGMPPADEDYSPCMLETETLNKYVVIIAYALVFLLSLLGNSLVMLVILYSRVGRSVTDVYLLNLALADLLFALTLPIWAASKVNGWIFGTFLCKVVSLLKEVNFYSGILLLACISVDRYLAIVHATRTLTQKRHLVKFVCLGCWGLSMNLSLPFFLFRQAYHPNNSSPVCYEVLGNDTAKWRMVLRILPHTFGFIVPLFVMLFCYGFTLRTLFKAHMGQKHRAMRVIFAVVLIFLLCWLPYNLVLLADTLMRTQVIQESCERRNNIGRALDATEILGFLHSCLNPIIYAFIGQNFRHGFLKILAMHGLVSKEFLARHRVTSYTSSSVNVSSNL

For assay [6], the target named is T6, 168 GPCRs (Homo sapiens, UniProt Q01726).
T6 construct: host or cells: PathHunter cell lines
T6 sequence (Q01726 whole entry): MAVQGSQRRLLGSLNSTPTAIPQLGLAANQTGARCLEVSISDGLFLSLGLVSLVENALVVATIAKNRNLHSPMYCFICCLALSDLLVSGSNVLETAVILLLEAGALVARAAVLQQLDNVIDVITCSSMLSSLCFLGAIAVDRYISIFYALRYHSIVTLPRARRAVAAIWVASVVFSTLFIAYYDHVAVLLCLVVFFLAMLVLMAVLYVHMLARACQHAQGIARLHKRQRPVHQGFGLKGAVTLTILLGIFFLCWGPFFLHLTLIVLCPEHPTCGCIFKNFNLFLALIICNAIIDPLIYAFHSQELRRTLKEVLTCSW
The following applies: MC1R.

T1 sequence (O00574 whole entry): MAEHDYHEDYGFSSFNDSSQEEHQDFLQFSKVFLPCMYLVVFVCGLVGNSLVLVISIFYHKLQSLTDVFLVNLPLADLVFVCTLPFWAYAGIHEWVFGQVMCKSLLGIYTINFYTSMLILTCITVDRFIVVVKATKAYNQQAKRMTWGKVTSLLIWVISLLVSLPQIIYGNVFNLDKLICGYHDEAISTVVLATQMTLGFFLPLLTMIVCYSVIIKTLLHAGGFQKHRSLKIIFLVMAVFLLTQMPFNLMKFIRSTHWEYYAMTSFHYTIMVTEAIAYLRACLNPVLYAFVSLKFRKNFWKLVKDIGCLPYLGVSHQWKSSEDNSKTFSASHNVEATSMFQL

For `CNC(C)C(=O)c1ccc2c(c1)OCO2` (stereo not drawn) [methylone], the “% Agonist Activity” value on 168 GPCRs [1] (CXCR6, 1 uM) was 0.3%; at 168 GPCRs [1] (CXCR6, 10 uM), 0.3%; on 168 GPCRs [2] (HCRTR1, 1 uM), -0.1%; at 168 GPCRs [2] (HCRTR1, 10 uM) it was -0.1%; at 168 GPCRs [3] (1 uM) it was -3.8%; on 168 GPCRs [3] (10 uM) it was -3.8%. For the same molecule, the “% Agonist Activity” value is -9.1% at 168 GPCRs [4] (CHRM1, 1 uM); -8.5% on 168 GPCRs [4] (CHRM1, 10 uM); -0.5% on 168 GPCRs [5] (CXCR1, 1 uM); -0.1% on 168 GPCRs [5] (CXCR1, 10 uM); -2.6% at 168 GPCRs [6] (1 uM); -4.4% on 168 GPCRs [6] (10 uM). The “% Antagonist Activity” value was 27.2% at 168 GPCRs [1] (CXCR6, 1 uM); 12.6% at 168 GPCRs [1] (CXCR6, 10 uM); 2.3% on 168 GPCRs [2] (HCRTR1, 1 uM); 1.2% at 168 GPCRs [2] (HCRTR1, 10 uM); -4.6% on 168 GPCRs [3] (1 uM); 1.9% at 168 GPCRs [3] (10 uM). Moreover, the “% Antagonist Activity” value on 168 GPCRs [4] (CHRM1, 1 uM) was determined as 15.8%; on 168 GPCRs [4] (CHRM1, 10 uM) it was 2%; on 168 GPCRs [5] (CXCR1, 1 uM), 12.1%; at 168 GPCRs [5] (CXCR1, 10 uM) it was 3.1%; at 168 GPCRs [6] (1 uM), 20.1%; on 168 GPCRs [6] (10 uM) it was 15.9%.
Consider `CNC(C)Cc1ccc2c(c1)OCO2` (stereo not drawn) [MDMA, 3,4-Methylenedioxy methamphetamine, reference compound], for which the “% Agonist Activity” value is 14.7% on 168 GPCRs [1] (CXCR6, 1 uM); 3.8% at 168 GPCRs [1] (CXCR6, 10 uM); -0.2% at 168 GPCRs [2] (HCRTR1, 1 uM); -0.1% on 168 GPCRs [2] (HCRTR1, 10 uM); 7% at 168 GPCRs [3] (1 uM); 6.5% on 168 GPCRs [3] (10 uM). Further, the “% Agonist Activity” value at 168 GPCRs [4] (CHRM1, 1 uM) is reported as 0.2%; on 168 GPCRs [4] (CHRM1, 10 uM), 0.7%; on 168 GPCRs [5] (CXCR1, 1 uM) it was -0.4%; on 168 GPCRs [5] (CXCR1, 10 uM) it was -0.3%; on 168 GPCRs [6] (1 uM) it was -6.6%; at 168 GPCRs [6] (10 uM), -3.4%. Further, the “% Antagonist Activity” value at 168 GPCRs [1] (CXCR6, 1 uM) was 20.9%; at 168 GPCRs [1] (CXCR6, 10 uM), 5.2%; at 168 GPCRs [2] (HCRTR1, 1 uM) it was 8.6%; on 168 GPCRs [2] (HCRTR1, 10 uM) it was 15%; on 168 GPCRs [3] (1 uM), -5%; on 168 GPCRs [3] (10 uM), -13.9%. Moreover, the “% Antagonist Activity” value at 168 GPCRs [4] (CHRM1, 1 uM) is on record as 12.1%; at 168 GPCRs [4] (CHRM1, 10 uM), 0.1%; at 168 GPCRs [5] (CXCR1, 1 uM) it was -2.4%; at 168 GPCRs [5] (CXCR1, 10 uM) it was -4.6%; on 168 GPCRs [6] (1 uM), 6.5%; on 168 GPCRs [6] (10 uM), -4.9%.
